Counter-ions that a name gives are not always drawn.

For the assay, the target named is T1, Inward rectifier potassium channel 2 (Mus musculus, UniProt P35561).
T1 sequence (P35561 whole entry): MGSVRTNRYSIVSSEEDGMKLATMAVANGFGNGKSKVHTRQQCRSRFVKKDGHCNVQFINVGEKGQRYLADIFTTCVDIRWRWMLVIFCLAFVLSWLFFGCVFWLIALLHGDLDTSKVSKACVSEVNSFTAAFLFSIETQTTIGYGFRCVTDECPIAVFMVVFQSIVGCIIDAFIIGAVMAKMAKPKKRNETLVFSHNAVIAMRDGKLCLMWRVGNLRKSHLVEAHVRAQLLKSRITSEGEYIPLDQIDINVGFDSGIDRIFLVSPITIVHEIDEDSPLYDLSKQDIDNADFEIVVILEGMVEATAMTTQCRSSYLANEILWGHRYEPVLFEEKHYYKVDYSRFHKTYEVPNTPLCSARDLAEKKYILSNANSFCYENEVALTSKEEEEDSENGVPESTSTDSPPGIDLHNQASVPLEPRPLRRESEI
Put plainly: inhibitors of Kir2.1 potassium channel – mouse Kir2.1, dose response (AID 2594).
Regarding `COc1ccc(CNCc2cccc3ccccc23)cc1`, it took 26.9 µM to reach half-maximal inhibition (IC50).
The same measure for `CC(NS(=O)(=O)c1ccc(Br)s1)c1ccccc1` (stereo not given): 19.8 µM; for `Cc1ccc(OCC(O)CNCc2ccc(F)cc2)cc1` (stereo not given) [1-[(4-fluorophenyl)methylamino]-3-(4-methylphenoxy)propan-2-ol]: 24.6 µM.
To `Cc1ccc(Nc2cc(C)nc3c(C)cccc23)cc1` [2,8-dimethyl-N-(4-methylphenyl)quinolin-4-amine] belongs 43.1 µM.
To `Fc1ccc(N2CCN(Cc3c[nH]c4ccccc34)CC2)cc1` [3-[[4-(4-fluorophenyl)piperazin-1-yl]methyl]-1H-indole] belongs 30.6 µM.
`CCn1c(COc2ccccc2)nnc1SCc1ccc(C#N)cc1` [4-[[4-ethyl-5-(phenoxymethyl)-1,2,4-triazol-3-yl]sulfanylmethyl]benzonitrile]: half-maximal inhibition (IC50) required 48.3 µM.
In the case of `Cc1ccc(O)c(CNCCNCc2cc(C)ccc2O)c1` [4-methyl-2-[[2-[(5-methyl-2-oxidanyl-phenyl)methylamino]ethylamino]methyl]phenol], inhibition was half-maximal at 21.5 µM (IC50).
As to `COc1ccc(CNC/C=C/c2ccccc2)cc1` [(E)-N-[(4-methoxyphenyl)methyl]-3-phenyl-prop-2-en-1-amine;hydrochloride], the IC50 (usually the concentration at which inhibition is half-maximal) amounted to 22.3 µM.
`Cc1ccc2[nH]c(NCc3ccccc3)nc2c1` [MLS000081058] had an IC50 of 33.4 µM.
The same measure for `c1ccc(COc2ccc(OCCCNC3CCCC3)cc2)cc1` [MLS000535503]: 33.5 µM.
Compound `CC(C)(C)OC(=O)NCCc1nnc(SCc2ccc(Cl)cc2)o1` [MLS000557943] returned an IC50 of 15.8 µM.
The same measure for `CSc1ccc(S(=O)(=O)NC(C)c2ccccc2)cc1` (stereo not given) [MLS000693878]: 43 µM; for `CCCN1CCC(NC23CC4CC(CC(C4)C2)C3)CC1` [N-(1-adamantyl)-1-propyl-4-piperidinamine]: 54.2 µM.
As for `Clc1ccc(CNC2CCN(Cc3ccccc3)CC2)cc1` [N-[(4-chlorophenyl)methyl]-1-(phenylmethyl)-4-piperidinamine], inhibition was half-maximal at 37.7 µM (IC50).
The compound `COc1ccc(Nc2ccnc3ccccc23)cc1` [SMR000033695] returned an IC50 of 34 µM.
The same measure for `CCn1c(Sc2ccc(N)cc2Cl)nc2ccccc21` [SMR000078102]: 35.6 µM; for `O=S(=O)(c1ccc(F)cc1)N1CCCc2ccccc21` [SMR000514216]: 58.5 µM; for `CC(NS(=O)(=O)c1ccc(Br)cc1)c1ccccc1` (stereo not given) [SMR000516693]: 25.6 µM.
The compound `COc1ccc(CNCCc2ccc3c(c2)OCO3)cc1Br` [SMR000555601] came in with an IC50 of 34.7 µM.
To `CC(O)CNCCCOc1cccc(Oc2ccccc2)c1` (stereo not given) [oxalic acid;1-[3-(3-phenoxyphenoxy)propylamino]-2-propanol] belongs 23.6 µM.

These data come from BindingDB's records for doi:10.7270/Q23R0R98 (Johns Hopkins Ion Channel Center, 2010).
